Source: PubChem BioAssay (NCI)
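All cell lines were grown in 96-well plates and treated with compound for 48 hours. Abbreviation: GI50, concentration required for 50% inhibition of growth. TGI marks complete inhibition of growth.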

Assays:
Assay in all cases: growth of human tumour cells (NCI), 48 h
DLD-1 colon = system: DLD-1 colon
DMS 114 small cell lung = system: DMS 114 small cell lung
LXFL 529 NSCLC = system: LXFL 529 NSCLC
M19-MEL melanoma = system: M19-MEL melanoma
SNB-78 CNS = system: SNB-78 CNS
HOP-18 NSCLC = system: HOP-18 NSCLC
MDA-N = system: MDA-N
RXF-631 renal = system: RXF-631 renal
XF 498 CNS = system: XF 498 CNS

COC(=O)C12C3C4C1C1C2C3C41C(=O)N(C(C)C)C(C)C (stereo not given)
TGI (DLD-1 colon): > 100 µM | TGI (DMS 114 small cell lung): > 100 µM | TGI (LXFL 529 NSCLC): > 100 µM | TGI (M19-MEL melanoma): > 100 µM | TGI (SNB-78 CNS): > 100 µM

Cc1c(N)nc(C(CC(N)=O)NCC(N)C(N)=O)nc1C(=O)NC(C(=O)NC(C)C(O)C(C)C(=O)NC(C(=O)NCCc1nc(-c2nc(C(=O)NCCCNCCCCN)cs2)cs1)C(C)O)C(OC1OC(CO)C(O)C(O)C1OC1OC(CO)C(O)C(OC(N)=O)C1O)c1cnc[nH]1 (stereo not given)
TGI (DLD-1 colon): > 10 µM | TGI (DMS 114 small cell lung): > 10 µM | TGI (HOP-18 NSCLC): > 10 µM | TGI (LXFL 529 NSCLC): > 10 µM | TGI (M19-MEL melanoma): > 10 µM | GI50 (MDA-N): 27.4 mg/L | TGI (RXF-631 renal): > 10 µM | TGI (SNB-78 CNS): > 10 µM | TGI (XF 498 CNS): > 10 µM

C[C@H]1CCC/C=C/[C@@H]2C[C@H](O)C[C@H]2[C@H](O)[C@@H](SC2OC(CO)C(O)C(O)C2O)CC(=O)O1 (stereo not given in full)
GI50 (MDA-N): 52.9 µM | TGI (MDA-N): > 100 µM

O=C(O)c1oc2cccc3c2c1CCC3
TGI (DLD-1 colon): > 100 µM | TGI (DMS 114 small cell lung): > 100 µM | TGI (LXFL 529 NSCLC): > 100 µM | TGI (M19-MEL melanoma): > 100 µM | TGI (RXF-631 renal): > 100 µM | TGI (SNB-78 CNS): > 100 µM | TGI (XF 498 CNS): > 100 µM

CC(=O)OCC(OC(C)=O)C(OC(C)=O)C(OC(C)=O)C(=O)CNn1c(-c2ccccc2Cl)nc2ccc(Br)cc2c1=O (stereo not given)
TGI (DMS 114 small cell lung): > 100 µM | TGI (LXFL 529 NSCLC): > 100 µM | TGI (M19-MEL melanoma): > 100 µM | TGI (SNB-78 CNS): > 100 µM | TGI (XF 498 CNS): 66.2 µM

Cc1cc(Cl)ccc1NC(=O)CCCC(=O)C(C(=O)c1ccccc1)c1ccccc1 (stereo not given)
TGI (DLD-1 colon): > 100 µM | TGI (DMS 114 small cell lung): > 100 µM | TGI (LXFL 529 NSCLC): > 100 µM | TGI (M19-MEL melanoma): > 100 µM | TGI (RXF-631 renal): > 100 µM | TGI (SNB-78 CNS): > 100 µM

C=Cc1cnc([N+](=O)[O-])n1C
TGI (MDA-N): > 100 µM

CC(=O)Nc1cc2cc(NS(=O)(=O)c3cc(C(F)(F)F)cc(C(F)(F)F)c3)ccc2oc1=O
TGI (MDA-N): > 100 µM

CCCCN(CCCC)C(=O)C(=O)CC(=O)/C=C/c1ccccc1
TGI (DLD-1 colon): > 100 µM | TGI (DMS 114 small cell lung): > 100 µM | TGI (HOP-18 NSCLC): > 100 µM | TGI (LXFL 529 NSCLC): > 100 µM | TGI (M19-MEL melanoma): > 100 µM | TGI (RXF-631 renal): > 100 µM | TGI (SNB-78 CNS): > 100 µM

C[C@]12CC[C@H]3[C@@H](CCC4=C[C@@H](OC5OCC(OC6OC(CO)C(O)C(O)C6O)C(O)C5O)CC[C@@]43C=O)[C@@]1(O)CCC2C1=CC(=O)OC1 (stereo not given in full)
TGI (MDA-N): 3.03 µM

O=C(O)Cc1cc(=O)[nH]c2c1C(=O)CCC2
TGI (DLD-1 colon): > 100 µM | TGI (HOP-18 NSCLC): > 100 µM | TGI (LXFL 529 NSCLC): > 100 µM | TGI (M19-MEL melanoma): > 100 µM | TGI (XF 498 CNS): > 100 µM

CC1=NN(C(=O)c2cc(Cl)cc([N+](=O)[O-])c2)C(=O)C1N=Nc1ccccc1C(=O)O (stereo not given)
TGI (DLD-1 colon): > 100 µM | TGI (HOP-18 NSCLC): > 100 µM | TGI (LXFL 529 NSCLC): > 100 µM | TGI (M19-MEL melanoma): > 100 µM | TGI (RXF-631 renal): > 100 µM | TGI (SNB-78 CNS): > 100 µM

CCC1(CC)C(=O)[N-]C(=O)[N-]C1=O.[Au+].[Au+].c1ccc([PH+](c2ccccc2)c2ccccc2)cc1.c1ccc([PH+](c2ccccc2)c2ccccc2)cc1
GI50 (HOP-18 NSCLC): 0.256 µM | TGI (HOP-18 NSCLC): 1.16 µM | GI50 (LXFL 529 NSCLC): 0.153 µM | TGI (LXFL 529 NSCLC): 0.323 µM | GI50 (M19-MEL melanoma): 0.937 µM | TGI (M19-MEL melanoma): 2.17 µM

COC(=O)C1=C(c2cc(OC)c(OC)c(OC)c2)O[C@H](c2ccc3c(c2)OCO3)[C@H]1COC(C)=O
TGI (DLD-1 colon): > 100 µM | TGI (HOP-18 NSCLC): > 100 µM | TGI (LXFL 529 NSCLC): 69.2 µM | TGI (M19-MEL melanoma): > 100 µM | TGI (RXF-631 renal): > 100 µM | TGI (SNB-78 CNS): > 100 µM | TGI (XF 498 CNS): > 100 µM

COc1cccc2ccc3c(c12)C(=O)OC31CCc2c(C)cccc21 (stereo not given)
TGI (DLD-1 colon): > 31.6 µM | TGI (DMS 114 small cell lung): > 31.6 µM | TGI (HOP-18 NSCLC): > 31.6 µM | TGI (LXFL 529 NSCLC): > 31.6 µM | TGI (M19-MEL melanoma): > 31.6 µM | TGI (MDA-N): > 100 µM | TGI (SNB-78 CNS): > 100 µM | TGI (XF 498 CNS): 86.2 µM

COc1cc(C(=O)C/C(CCC(=O)Nc2ccc(Cl)cc2Cl)=N/Nc2nnc(C)n2N)ccc1O
TGI (DLD-1 colon): > 100 µM | TGI (HOP-18 NSCLC): > 100 µM | TGI (LXFL 529 NSCLC): > 100 µM | TGI (M19-MEL melanoma): > 100 µM | TGI (SNB-78 CNS): > 100 µM | TGI (XF 498 CNS): > 100 µM

Cc1ccc(SCC(O)=C2C(=O)CCCC2=O)cc1
TGI (DLD-1 colon): > 100 µM | TGI (DMS 114 small cell lung): > 100 µM | TGI (HOP-18 NSCLC): > 100 µM | TGI (LXFL 529 NSCLC): > 100 µM | TGI (M19-MEL melanoma): > 100 µM | TGI (RXF-631 renal): > 100 µM | TGI (SNB-78 CNS): > 100 µM | TGI (XF 498 CNS): > 100 µM
